The record followed here is PubChem BioAssay AID328 (DTP/NCI, 2004).

Several values for one entry are separate records, joined by “and”; a condition that tells them apart may be missing. Equal entries are not always repeated. Inconclusive results and toxic doses are left out.

This experiment has as its system BDF1 mice, P388 leukemia ip, median survival T/C. The experiment in a line: NCI In Vivo Anticancer Drug Screen. Data for tumor model P388 Leukemia (intraperitoneal) in B6D2F1 (BDF1) mice. The following applies: endpoint: median survival time, higher = longer survival. In short, it runs like this: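 Steps: implant the tumour, treat one group with compound and another with vehicle, record survival, then divide treated by control.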

`CO[C@H](C(=O)[C@@H](O)[C@@H](C)O)[C@@H]1Cc2cc3cc(OC4CC(OC5CC(O)C(O)C(C)O5)C(O)C(C)O4)c(C)c(O)c3c(O)c2C(=O)[C@H]1OC1CC(OC2CC(OC3CC(C)(O)C(O)C(C)O3)C(O)C(C)O2)C(O)C(C)O1` (some centres not stated): the T/C reads like this: (dose: 0.05 mg/kg/injection, schedule: Q01DX009 (ip), vehicle: water) 120 % of control and 110 % of control; (dose: 0.06 mg/kg/injection, schedule: Q01DX001 (ip), vehicle: water) 100 % of control; (dose: 0.1 mg/kg/injection, schedule: Q01DX015 (ip), vehicle: water) 100 % of control; (dose: 0.12 mg/kg/injection, schedule: Q01DX009 (ip), vehicle: clinical formulation) 114 % of control; (dose: 0.12 mg/kg/injection, schedule: Q#A X005 (ip), vehicle: saline) 118 % of control; (dose: 0.13 mg/kg/injection, schedule: Q01DX001 (ip), vehicle: water) 100 % of control. In addition, the T/C reads like this: (dose: 0.13 mg/kg/injection, schedule: Q01DX009 (ip), vehicle: saline) 122 % of control; (dose: 0.19 mg/kg/injection, schedule: Q01DX010 (ip), vehicle: saline) 110 % of control; (dose: 0.2 mg/kg/injection, schedule: Q01DX009 (ip), vehicle: water) 150 % of control; (dose: 0.25 mg/kg/injection, schedule: Q01DX001 (im), vehicle: water) 100 % of control; (dose: 0.25 mg/kg/injection, schedule: Q01DX001 (ip), vehicle: water) 104 % of control; (dose: 0.25 mg/kg/injection, schedule: Q01DX005 (ip), vehicle: saline) 100 % of control. Besides, the T/C reads like this: (dose: 0.25 mg/kg/injection, schedule: Q01DX009 (ip), vehicle: clinical formulation) 121 % of control; (dose: 0.25 mg/kg/injection, schedule: Q01DX010 (oral), vehicle: saline) 100 % of control; (dose: 0.25 mg/kg/injection, schedule: Q01DX015 (ip), vehicle: water) 115 % of control; (dose: 0.35 mg/kg/injection, schedule: Q01DX009 (ip), vehicle: water) 150 % of control; (dose: 0.5 mg/kg/injection, schedule: Q01DX001 (im), vehicle: water) 95 % of control; (dose: 0.5 mg/kg/injection, schedule: Q01DX001 (ip), vehicle: saline) 100 % of control. For the same molecule, the T/C runs as follows: (dose: 0.5 mg/kg/injection, schedule: Q01DX001 (ip), vehicle: water) 110 % of control; (dose: 0.5 mg/kg/injection, schedule: Q01DX005 (ip), vehicle: saline) 100 % of control; (dose: 0.5 mg/kg/injection, schedule: Q01DX009 (ip), vehicle: water) 150 % of control; (dose: 0.5 mg/kg/injection, schedule: Q01DX010 (oral), vehicle: saline) 100 % of control; (dose: 0.5 mg/kg/injection, schedule: Q02DX005 (ip), vehicle: water) 90 % of control; (dose: 0.5 mg/kg/injection, schedule: Q04DX003 (ip), vehicle: saline) 100 % of control. For the same molecule, the T/C was 175 % of control (dose: 0.54 mg/kg/injection, schedule: Q01DX005 (ip), vehicle: water); 95 % of control (dose: 0.65 mg/kg/injection, schedule: Q01DX009 (ip), vehicle: water); 115 % of control (dose: 0.65 mg/kg/injection, schedule: Q04DX003 (ip), vehicle: water); 118 % of control (dose: 0.75 mg/kg/injection, schedule: Q01DX010 (ip), vehicle: water); 108 % of control (dose: 1.0 mg/kg/injection, schedule: Q01DX001 (im), vehicle: water); 100 % of control and 109 % of control (dose: 1.0 mg/kg/injection, schedule: Q01DX001 (ip), vehicle: saline). Also, the T/C by setting is: (dose: 1.0 mg/kg/injection, schedule: Q01DX009 (ip), vehicle: clinical formulation) 191 % of control; (dose: 1.0 mg/kg/injection, schedule: Q01DX009 (ip), vehicle: saline) 94 % of control and 95 % of control; (dose: 1.0 mg/kg/injection, schedule: Q01DX010 (oral), vehicle: saline) 100 % of control; (dose: 1.0 mg/kg/injection, schedule: Q04DX003 (ip), vehicle: saline) 91 % of control and 118 % of control; (dose: 1.08 mg/kg/injection, schedule: Q04DX003 (ip), vehicle: water) 113 % of control; (dose: 1.5 mg/kg/injection, schedule: Q01DX010 (ip), vehicle: saline) 180 % of control. Besides, the T/C is 91 % of control (dose: 1.5 mg/kg/injection, schedule: Q01DX010 (oral), vehicle: water); 103 % of control (dose: 1.8 mg/kg/injection, schedule: Q04DX003 (ip), vehicle: water); 118 % of control (dose: 2.0 mg/kg/injection, schedule: Q01DX001 (ip), vehicle: saline); 31 % of control (dose: 2.0 mg/kg/injection, schedule: Q01DX009 (ip), vehicle: saline); 100 % of control (dose: 2.0 mg/kg/injection, schedule: Q01DX010 (oral), vehicle: saline); 91 % of control (dose: 2.0 mg/kg/injection, schedule: Q01DX010 (oral), vehicle: water). The T/C is 91 % of control (dose: 2.5 mg/kg/injection, schedule: Q01DX010 (oral), vehicle: water); 100 % of control (dose: 50.0 mg/kg/injection, schedule: Q01DX010 (ip), vehicle: water); 100 % of control (dose: 7.5 micrograms/kg/injection, schedule: Q03HX008 (ip), vehicle: saline); 95 % of control (dose: 7.5 micrograms/kg/injection, schedule: Q04DX024 (ip), vehicle: saline); 109 % of control (dose: 63.0 micrograms/kg/injection, schedule: Q01DX010 (ip), vehicle: saline); 100 % of control (dose: 94.0 micrograms/kg/injection, schedule: Q01DX010 (ip), vehicle: saline). Moreover, the T/C (dose: 125.0 micrograms/kg/injection, schedule: Q01DX010 (ip), vehicle: saline) was 118 % of control; the T/C (dose: 188.0 micrograms/kg/injection, schedule: Q01DX010 (ip), vehicle: saline) is 113 % of control; the T/C (dose: 375.0 micrograms/kg/injection, schedule: Q01DX010 (ip), vehicle: saline) was 113 % of control.
For `CC1(C)CN(Cc2ccccc2)C(C)(C)CN1N`, the T/C (dose: 6.25 mg/kg/injection, schedule: Q01DX009 (ip), vehicle: saline with Tween-80) was 97 % of control; the T/C (dose: 12.5 mg/kg/injection, schedule: Q01DX009 (ip), vehicle: saline with Tween-80) was 101 % of control; the T/C (dose: 12.5 mg/kg/injection, schedule: Q04DX003 (ip), vehicle: saline with Tween-80) was 111 % of control; the T/C (dose: 25.0 mg/kg/injection, schedule: Q01DX009 (ip), vehicle: saline with Tween-80) is 97 % of control; the T/C (dose: 25.0 mg/kg/injection, schedule: Q04DX003 (ip), vehicle: saline with Tween-80) is 107 % of control; the T/C (dose: 50.0 mg/kg/injection, schedule: Q01DX009 (ip), vehicle: saline with Tween-80) is 115 % of control. Besides, the T/C is 107 % of control (dose: 50.0 mg/kg/injection, schedule: Q04DX003 (ip), vehicle: saline with Tween-80) and 111 % of control (dose: 100.0 mg/kg/injection, schedule: Q04DX003 (ip), vehicle: saline with Tween-80).
Regarding `CCCCCCCCCCCC(=O)NC1CC(O[C@H]2C[C@](O)(C(=O)CO)Cc3c(O)c4c(c(O)c32)C(=O)c2c(OC)cccc2C4=O)OC(C)C1O` (some centres not stated), the T/C is 113 % of control (dose: 0.78 mg/kg/injection, schedule: Q01DX009 (ip), vehicle: water); 159 % of control (dose: 3.13 mg/kg/injection, schedule: Q01DX009 (ip), vehicle: water); 168 % of control (dose: 6.25 mg/kg/injection, schedule: Q01DX009 (ip), vehicle: water); 240 % of control (dose: 12.5 mg/kg/injection, schedule: Q01DX009 (ip), vehicle: water); 159 % of control (dose: 25.0 mg/kg/injection, schedule: Q01DX009 (ip), vehicle: water).
In the case of `C=C1C(=O)OC2C3OC(C)(CCC(O)C3COC(C)=O)CC(OC(=O)/C(=C/C)COC(C)=O)C12` (configuration not stated), the T/C (dose: 3.13 mg/kg/injection, schedule: Q01DX009 (ip), vehicle: Klucel (hydroxypropylcellulose) (HPC)) is 100 % of control; the T/C (dose: 6.25 mg/kg/injection, schedule: Q01DX009 (ip), vehicle: Klucel (hydroxypropylcellulose) (HPC)) is 112 % of control; the T/C (dose: 12.5 mg/kg/injection, schedule: Q01DX009 (ip), vehicle: Klucel (hydroxypropylcellulose) (HPC)) is 102 % of control; the T/C (dose: 25.0 mg/kg/injection, schedule: Q01DX009 (ip), vehicle: Klucel (hydroxypropylcellulose) (HPC)) is 121 % of control.
As for `C=C1C(=O)O[C@H]2C1[C@H](OC(=O)/C(C)=C\COC(C)=O)C[C@]1(CO1)[C@@H]1[C@H](O)[C@H]3O[C@@]3(C)[C@@H]12` (some centres not stated), the T/C reads like this: (dose: 3.12 mg/kg/injection, schedule: Q01DX009 (ip), vehicle: other) 103 % of control; (dose: 6.25 mg/kg/injection, schedule: Q01DX009 (ip), vehicle: other) 96 % of control and 120 % of control; (dose: 12.5 mg/kg/injection, schedule: Q01DX009 (ip), vehicle: other) 101 % of control; (dose: 50.0 mg/kg/injection, schedule: Q01DX009 (ip), vehicle: other) 173 % of control.
